Laboratory results: patent US10519177B2, “Heterocyclic compounds and uses thereof” (Plexxikon Inc., priority 2013, dated 2019)
Where two headings read alike, the source gives them in different places.

Experiments:
MV-4-11 cells = assay: Oncology cell growth assay MV-4-11 (CellTiter Glo); assay type: cell-based; conditions: Homo sapiens, MV4-11, 72 h, read-out: Cell activity (IC50 μM) MV-4-11 3d-Growth
Summary of the method: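 Growth read by CellTiter Glo luminescence after 72 h compound treatment of MLL-AF4-bearing MV-4-11 cells (3000/well). Titration: 8 points, 1:3 steps, maximum 10 μM, 0.2% DMSO final. Data normalized to DMSO wells, four-parameter fit gives pIC50.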

bromodomain = assay: at least one of the bromodomain cell assays of Example 57; assay type: cell-based; conditions: at least one of the bromodomain cell assays described in Example 57; read-out: IC50 in at least one of the bromodomain cell assays
BRD4-BD12 (1-477) = BRD4-BD12 (1-477) (Homo sapiens (Human), UniProt O60885); assay: Alphascreen binding assay BRD4-BD12; conditions: BRD4(1 2) H4; read-out: Biochemical activity (IC50 μM) BRD4(1 2) H4
Summary of the method: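 In this competition format, compounds displace a biotinylated tetra-acetyl H4 peptide from E. coli-expressed human BRD4 bromodomain constructs captured on nickel chelate beads. The reaction runs at pH 7.5 with 2 mM DTT and detergent for 1 h at room temperature before a 30 min bead step.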

SMILES | IC50 (MV-4-11 cells) | IC50 (bromodomain) | IC50 (BRD4-BD12 (1-477)) | IC50 (MV-4-11 cells; MV-4-11, 3d growth)
Cc1nn(C)cc1-c1cn(CC2CCC(F)(F)CC2)c2cc(-c3c(C)noc3C)cnc12 [P-0395, 4-[1-[(4,4-difluorocyclohexyl)methyl]-3-(1,3-dimethylpyrazol-4-yl)pyrrolo[3,2-b]pyridin-6-yl]-3,5-dimethyl-isoxazole] | < 1 µM | < 10000 nM | < 1 µM | 
Nc1ncc(-c2cnc3c(-c4cnn(CC(F)(F)F)c4)cn(CC4CCC(F)(F)CC4)c3c2)cn1 [P-0451, 5-[1-[(4,4-difluorocyclohexyl)methyl]-3-[1-(2,2,2-trifluoroethyl)pyrazol-4-yl]pyrrolo[3,2-b]pyridin-6-yl]pyrimidin-2-amine] |  | < 10000 nM | 1 to 10 µM | 10 to 200 µM
COC(=O)c1ccc(-c2cn([C@@H](C)c3ccccc3)c3cc(-c4c(C)noc4C)cnc23)cc1 [P-0559, methyl 4-[6-(3,5-dimethylisoxazol-4-yl)-1-[(1S)-1-phenylethyl]pyrrolo[3,2-b]pyridin-3-yl]benzoate] |  | < 10000 nM | < 1 µM | < 1 µM
Cc1noc(C)c1-c1cnc2c(-c3ccc(C(=O)O)nc3)cn(CC3(F)CCCCC3)c2c1 [P-0455, 5-[6-(3,5-dimethylisoxazol-4-yl)-1-[(1-fluorocyclohexyl)methyl]pyrrolo[3,2-b]pyridin-3-yl]pyridine-2-carboxlic acid] |  | < 10000 nM | < 1 µM | < 1 µM
CCNC(=O)Nc1ccc(-c2cn(CC3CCC(F)(F)CC3)c3cc(-c4c(C)noc4C)cnc23)cn1 [P-0584, 1-[5-[1-[(4,4-difluorocyclohexyl)methyl]-6-(3,5-dimethylisoxazol-4-yl)pyrrolo[3,2-b]pyridin-3-yl]-2-pyridyl]-3-ethyl-urea] |  | < 10000 nM | < 1 µM | < 1 µM
Cc1noc(C)c1-c1cnc2c(-c3ccc(NC(=O)NC4CC4)cc3)cn([C@@H](C)c3ccccn3)c2c1 [P-0564, 1-cyclopropyl-3-[4-[6-(3,5-dimethylisoxazol-4-yl)-1-[(1S)-1-(2-pyridyl)ethyl]pyrrolo[3,2-b]pyridin-3-yl]phenyl]urea] |  | < 10000 nM | < 1 µM | < 1 µM
Cc1noc(C)c1-c1cnc2c(-c3ccnc(C4CC4)c3)cn(CC3CCC(F)(F)CC3)c2c1 [P-0407, 4-[3-(2-cyclopropyl-4-pyridyl)-1-[(4,4-difluorocyclohexyl)methyl]pyrrolo[3,2-b]pyridin-6-yl]-3,5-dimethyl-isoxazole] | < 1 µM | < 10000 nM | < 1 µM | 
Cc1noc(C)c1-c1cnc2c(-c3cccc(S(=O)(=O)NCCO)c3)cn(CC3(F)CCCCC3)c2c1 [P-0491, 3-[6-(3,5-dimethylisoxazol-4-yl)-1-[(1-fluorocyclohexyl)methyl]pyrrolo[3,2-b]pyridin-3-yl]-N-(2-hydroxyethyl)benzenesulfonamide] |  | < 10000 nM | < 1 µM | < 1 µM
Cc1noc(C)c1-c1cnc2c(-c3cnn(CC(F)(F)F)c3)cn(Cc3ccc(F)cc3)c2c1 [P-0366, 4-[1-[(4-fluorophenyl)methyl]-3-[l-(2,2,2-trifluoroethyl)pyrazol-4-yl]pyrrolo[3,2-b]pyridin-6-yl]-3,5-dimethyl-isoxazole] | < 1 µM | < 10000 nM | < 1 µM | 
Cc1nnn(C)c1-c1cnc2c(-c3ccc(S(N)(=O)=O)cc3)cn(CC3(F)CCCCC3)c2c1 [P-0479, 4-[6-(3,5-dimethyltriazol-4-yl)-1-[(1-fluorocyclohexyl)methyl]pyrrolo[3,2-b]pyridin-3-yl]benzenesulfonamide] |  | < 10000 nM | < 1 µM | < 1 µM
CCNS(=O)(=O)c1ccc(-c2cn([C@@H](C)c3ccccn3)c3cc(-c4c(C)noc4C)cnc23)cc1 [P-0556, 4-[6-(3,5-dimethylisoxazol-4-yl)-1-[(1S)-1-(2-pyridyl)ethyl]pyrrolo[3,2-b]pyridin-3-yl]-N-ethyl-benzenesulfonamide] |  | < 10000 nM | < 1 µM | < 1 µM
COC(=O)c1ccc(-c2cn(CC3(F)CCC(F)(F)CC3)c3cc(-c4c(C)noc4C)cnc23)cn1 [P-0454, methyl 5-[6-(3,5-dimethylisoxazol-4-yl)-1-[(1,4,4-trifluorocyclohexyl)methyl]pyrrolo[3,2-b]pyridin-3-yl]pyridine-2-carboxylate] |  | < 10000 nM | < 1 µM | < 1 µM
Cc1noc(C)c1-c1cnc2c(-c3ccc([N+](=O)[O-])nc3)cn(CC3CCCCC3)c2c1 [P-0710, 4-[1-(cyclohexylmethyl)-3-(6-nitro-3-pyridyl)pyrrolo[3,2-b]pyridin-6-yl]-3,5-dimethyl-isoxazole] |  | < 10000 nM | < 1 µM | < 1 µM
Cc1noc(C)c1-c1cnc2c(-c3ccc(C(=O)O)cc3)cn(CC3CCCCC3)c2c1 [P-0554, 4-[1-(cyclohexylmethyl)-6-(3,5-dimethylisoxazol-4-yl)pyrrolo[3,2-b]pyridin-3-yl]benzoic acid] |  | < 10000 nM | < 1 µM | < 1 µM
Cc1noc(C)c1-c1cnc2c(-c3cnn(C(F)F)c3)cn(Cc3ncccn3)c2c1 [P-0350, 4-[3-[1-(difluoromethyl)pyrazol-4-yl]-1-(pyrimidin-2-ylmethyl)pyrrolo[3,2-b]pyridin-6-yl]-3,5-dimethyl-isoxazole] | < 1 µM | < 10000 nM | < 1 µM | 
Cc1noc(C)c1-c1cnc2c(-c3ccc(C(=O)NC4CC4)nc3)cn([C@@H](C)c3ccccn3)c2c1 [P-0543, N-cyclopropyl-5-[6-(3,5-dimethylisoxazol-4-yl)-1-[(1S)-1-(2-pyridyl)ethyl]pyrrolo[3,2-b]pyridin-3-yl]pyridine-2-carboxamide] |  | < 10000 nM | < 1 µM | < 1 µM
Cc1noc(C)c1-c1cnc2c(-c3ccc(CC(=O)O)cc3)cn(CC3(C)CCOCC3)c2c1 [P-0776, 2-[4-[6-(3,5-dimethylisoxazol-4-yl)-1-[(4-methyltetrahydrpyran-4-yl)methyl]pyrrolo[3,2-b]pyridin-3-yl]phenyl]acetic acid] |  | < 10000 nM | < 1 µM | 1 to 10 µM
COc1cc(-c2cn(CC3(F)CCCCC3)c3cc(-c4c(C)noc4C)cnc23)ccc1C(=O)O [P-0504, 4-[6-(3,5-dimethylisoxazol-4-yl)-1-[(1-fluorocyclohexyl)methyl]pyrrolo[3,2-b]pyridin-3-yl]-2-methoxy-benzoic acid] |  | < 10000 nM | < 1 µM | < 1 µM
Cc1noc(C)c1-c1cnc2c(-c3ccc(C(=O)O)cc3)cn(C(CC#N)C3CCCC3)c2c1 (stereo not drawn) [P-0527, 4-[1-(2-cyano-1-cyclopentyl-ethyl)-6-(3,5-dimethylisoxazol-4-yl)pyrrolo[3,2-b]pyridin-3-yl]benzoic acid] |  | < 10000 nM | < 1 µM | < 1 µM
Cc1noc(C)c1-c1cnc2c(-c3cnn(CC(F)(F)F)c3)cn([C@H](C)c3ccc(F)cc3)c2c1 [P-0351, 4-[1-[(1R)-1-(4-fluorophenyl)ethyl]-3-[1-(2,2,2-trifluoroethyl)pyrazol-4-yl]pyrrolo[3,2-b]pyridin-6-yl]-3,5-dimethyl-isoxazole] | < 1 µM | < 10000 nM | < 1 µM | 
[2H]C([2H])(C1CCC(F)(F)CC1)n1cc(-c2cnn(CCC#N)c2)c2ncc(-c3c(C)noc3C)cc21 [P-0339, 3-[4-[1-[dideuterio-(4,4-difluorocyclohexyl)methyl]-6-(3,5-dimethylisoxazol-4-yl)pyrrolo[3,2-b]pyridin-3-yl)pyrazol-1-yl]propanenitrile] | < 1 µM | < 10000 nM | < 1 µM | 
Cc1noc(C)c1-c1cnc2c(-c3ccc(-c4nnn[nH]4)cc3)cn(CC3(F)CCCCC3)c2c1 [P-0460, 4-[1-[(1-fluorocyclohexyl)methyl]-3-[4-(1H-tetrazol-5-yl)phenyl]pyrrolo[3,2-b]pyridin-6-yl]-3,5-dimethyl-isoxazole] |  | < 10000 nM | < 1 µM | < 1 µM
CNC(=O)c1ccc(-c2cn(CC3CCC(F)(F)CC3)c3cc(-c4c(C)noc4C)cnc23)cc1 [P-0403, 4-[1-[(4,4-difluorocyclohexyl)methyl]-6-(3,5-dimethylisoxazol-4-yl)pyrrolo[3,2-b]pyridin-3-yl]-N-methyl-benzamide] | < 1 µM | < 10000 nM | < 1 µM | 
Cc1noc(C)c1-c1cnc2c(-c3ccc4[nH]ncc4c3)cn(CC3(F)CCCCC3)c2c1 [P-0499, 4-[1-[(1-fluorocyclohexyl)methyl]-3-(1H-indazol-5-yl)pyrrolo[3,2-b]pyridin-6-yl]-3,5-dimethyl-isoxazole] |  | < 10000 nM | < 1 µM | < 1 µM
Cc1noc(C)c1-c1cnc2c(-c3ccc(=O)n(C)c3)cn(CC3(F)CCCCC3)c2c1 [P-0471, 5-[6-(3,5-dimethylisoxazol-4-yl)-1-[(1-fluorocyclohexyl)methyl]pyrrolo[3,2-b]pyridin-3-yl]-1-methyl-pyridin-2-one] |  | < 10000 nM | < 1 µM | < 1 µM
Cc1noc(C)c1-c1cnc2c(-c3cnc(C4CC4)nc3)cn(CC3(F)CCCCC3)c2c1 [P-0474, 4-[3-(2-cyclopropylpyrimidin-5-yl)-1-[(1-fluorocyclohexyl)methyl]pyrrolo[3,2-b]pyridin-6-yl]-3,5-dimethyl-isoxazole] |  | < 10000 nM | < 1 µM | < 1 µM
